Source: ChEMBL document CHEMBL1255306, “Potential basis for amphotericin B resistance in Aspergillus terreus” (2008)
Values after ≈ are worked out from the molar mass of the structure shown. Active and inactive are the calls of the source. No cut-off for these calls is given here.

Assays:
[1] = test system: Aspergillus fumigatus; test: Antimicrobial activity against […] Aspergillus fumigatus assessed as catalase activity after 24 to 48 hrs; format: functional, organism-based
[2] = test system: Aspergillus terreus; test: Antimicrobial activity against AMB-resistant Aspergillus terreus assessed as high malonaldehyde activity at 5 ug/ml after 8 hrs by thiobarbituric acid test; format: functional, organism-based
[3] = test system: Aspergillus terreus; test: Antimicrobial activity against Aspergillus terreus protoplast by CLSI M38-A broth microdilution method; format: functional
[4] = test system: Aspergillus fumigatus; test: Antimicrobial activity against […] Aspergillus fumigatus assessed as high malonaldehyde activity at 5 ug/ml after 8 hrs by thiobarbituric acid test; format: functional, organism-based
[5] = test system: Aspergillus terreus; test: Antimicrobial activity against AMB-resistant Aspergillus terreus assessed as high malonaldehyde activity at 10 ug/ml after 8 hrs by thiobarbituric acid test; format: functional, organism-based
[6] = test system: Aspergillus terreus; test: Antimicrobial activity against Aspergillus terreus conidia by CLSI M38-A broth microdilution method; format: functional
[7] = test system: Aspergillus terreus; test: Antimicrobial activity against AMB-resistant Aspergillus terreus assessed as catalase activity after 24 to 48 hrs; format: functional, organism-based
[8] = test system: Aspergillus fumigatus; test: Antimicrobial activity against […] Aspergillus fumigatus assessed as high malonaldehyde activity at 10 ug/ml after 8 hrs by thiobarbituric acid test; format: functional, organism-based

## C[C@@H]1[C@H](O)[C@@H](C)/C=C/C=C/C=C/C=C/C=C/C=C/C=C/[C@H](O[C@@H]2O[C@H](C)[C@@H](O)[C@H](N)[C@@H]2O)C[C@@H]2O[C@](O)(C[C@@H](O)C[C@@H](O)[C@H](O)CC[C@@H](O)C[C@@H](O)CC(=O)O[C@H]1C)C[C@H](O)[C@H]2C(=O)O [AMPHOTERICIN B]
[1]
  Activity: inactive
[2]
  Activity: Active
[3]
  MIC: 1.41 µg/mL (≈ 1.53 µM)
[4]
  Activity: Active
[5]
  Activity: Active
[6]
  MIC: 1.7 µg/mL (≈ 1.84 µM)
[7]
  Activity: Active
[8]
  Activity: Active
